Experimental data: ChEMBL document CHEMBL4665709, “Rational Avoidance of Protease Cleavage Sites and Symmetrical End-Tagging Significantly Enhances the Stability and Therapeutic Potential of Antimicrobial Peptides” (J Med Chem, 2020)
In brackets after ≈: the same amount, converted by molar mass. Where a SMILES comes first, the peptide text is derived from it.

How the values were obtained:
[1] = test system: Escherichia coli; assay: Antibacterial activity against Escherichia coli ATCC 25922 after 18 to 24 hrs by CLSI-based broth microdilution method; format: functional; details: time hrs 18-24
[2] = Therapeutic index, ratio of MHC for human RBC to geometric mean of peptide MIC for Staphylococcus epidermidis ATCC 12228; format: toxicity; details: human red blood cells (RBC), read-out: TI
[3] = Therapeutic index, ratio of MHC for human RBC to geometric mean of peptide MIC for methicillin-resistant Staphylococcus aureus 43300; format: toxicity; details: human red blood cells (RBC), read-out: TI
[4] = Cytotoxicity against HEK-293T cells assessed as cell viability at 128 uM by MTT assay relative to control; format: cell-based; details: human, read-out: Activity
[5] = Therapeutic index, ratio of MHC for human RBC to geometric mean of peptide MIC for Staphylococcus aureus 11011; format: toxicity; details: human red blood cells (RBC), read-out: TI
[6] = Therapeutic index, ratio of MHC for human RBC to geometric mean of peptide MIC for Salmonella choleraesuis 503; format: toxicity; details: human red blood cells (RBC), read-out: TI
[7] = test system: Staphylococcus aureus; assay: Antibacterial activity against Staphylococcus aureus 11011 after 18 to 24 hrs by CLSI-based broth microdilution method; format: functional; details: time hrs 18-24
[8] = Therapeutic index, ratio of MHC for human RBC to geometric mean of peptide MIC for Salmonella typhimurium 14028; format: toxicity; details: human red blood cells (RBC), read-out: TI
[9] = Therapeutic index, ratio of MHC for human RBC to geometric mean of peptide MIC for Staphylococcus aureus ATCC 29213; format: toxicity; details: human red blood cells (RBC), read-out: TI
[10] = Therapeutic index, ratio of MHC for human RBC to geometric mean of peptide MIC for Salmonella typhimurium 7731; format: toxicity; details: human red blood cells (RBC), read-out: TI
[11] = test system: Salmonella typhimurium; assay: Antibacterial activity against Salmonella typhimurium 7731 after 18 to 24 hrs by CLSI-based broth microdilution method; format: functional, Salmonella enterica subsp. enterica serovar Typhimurium; details: Salmonella enterica, time hrs 18-24
[12] = test system: Salmonella enterica; assay: Antibacterial activity against Salmonella choleraesuis 503 after 18 to 24 hrs by CLSI-based broth microdilution method; format: functional; details: time hrs 18-24
[13] = test system: Escherichia coli; assay: Antibacterial activity against Escherichia coli UB1005 after 18 to 24 hrs by CLSI-based broth microdilution method; format: functional; details: time hrs 18-24
[14] = test system: Streptococcus agalactiae; assay: Antibacterial activity against Streptococcus agalactiae H92 after 18 to 24 hrs by CLSI-based broth microdilution method; format: functional; details: time hrs 18-24
[15] = Antibacterial activity against Salmonella pullorum 7913 after 18 to 24 hrs by CLSI-based broth microdilution method; format: functional, Salmonella enterica subsp. enterica serovar Pullorum; details: Salmonella enterica, time hrs 18-24
[16] = test system: Staphylococcus epidermidis; assay: Antibacterial activity against Staphylococcus epidermidis ATCC 12228 after 18 to 24 hrs by CLSI-based broth microdilution method; format: functional; details: time hrs 18-24
[17] = Hemolytic activity in human RBC assessed as hemolysis at 1 to 128 uM relative to control; format: ADME, cell-based, Erythrocyte; details: human red blood cells (RBC), dose 1-128 µM, read-out: Activity
[18] = Therapeutic index, ratio of MHC for human RBC to geometric mean of peptide MIC for Escherichia coli ATCC 25922; format: toxicity; details: human red blood cells (RBC), read-out: TI
[19] = Therapeutic index, ratio of MHC for human RBC to geometric mean of peptide MIC for Streptococcus agalactiae H92; format: toxicity; details: human red blood cells (RBC), read-out: TI
[20] = Therapeutic index, ratio of MHC for human RBC to geometric mean of peptide MIC for Escherichia coli UB1005; format: toxicity; details: human red blood cells (RBC), read-out: TI
[21] = test system: Staphylococcus aureus; assay: Antibacterial activity against Staphylococcus aureus ATCC 29213 after 18 to 24 hrs by CLSI-based broth microdilution method; format: functional; details: time hrs 18-24
[22] = test system: Erythrocyte; assay: Hemolytic activity in human RBC assessed as hemolysis; format: ADME, cell-based
[23] = test system: Salmonella typhimurium; assay: Antibacterial activity against Salmonella typhimurium 14028 after 18 to 24 hrs by CLSI-based broth microdilution method; format: functional, Salmonella enterica subsp. enterica serovar Typhimurium; details: Salmonella enterica, time hrs 18-24
[24] = test system: Enterococcus faecalis; assay: Antibacterial activity against Enterococcus faecalis ATCC 29212 after 18 to 24 hrs by CLSI-based broth microdilution method; format: functional; details: time hrs 18-24
[25] = Therapeutic index, ratio of MHC for human RBC to geometric mean of peptide MIC for Enterococcus faecalis ATCC 29212; format: toxicity; details: human red blood cells (RBC), read-out: TI
[26] = test system: Staphylococcus aureus; assay: Antibacterial activity against methicillin-resistant Staphylococcus aureus 43300 after 18 to 24 hrs by CLSI-based broth microdilution method; format: functional; details: time hrs 18-24
[27] = Cytotoxicity against mouse RAW264.7 cells assessed as cell viability at 128 uM by MTT assay relative to control; format: cell-based; details: read-out: Activity
[28] = Therapeutic index, ratio of MHC for human RBC to geometric mean of peptide MIC for Salmonella pullorum 7913; format: toxicity; details: human red blood cells (RBC), read-out: TI

For `CC[C@H](C)[C@H](N)C(=O)N[C@@H](CS)C(=O)N[C@@H](CCCNC(=N)N)C(=O)N[C@@H](CCCCN)C(=O)N1CCC[C@H]1C(=O)N[C@H](C(=O)N[C@H](C(=O)N[C@@H](CS)C(=O)N[C@@H](CCCNC(=N)N)C(=O)N[C@@H](CCCCN)C(=O)N1CCC[C@H]1C(=O)N[C@H](C(N)=O)[C@@H](C)CC)[C@@H](C)CC)[C@@H](C)CC` (H-ICRKPIICRKPI-NH2), the MIC [1] was 64 µM (≈ 92.1 µg/mL), the selectivity ratio [2] was 2 and the selectivity ratio [3] was 2. The viability at 128 µM [4] was > 90%, the selectivity ratio [5] was 2 and the selectivity ratio [6] was 2. For the same compound, the MIC [7] was > 64 µM, the selectivity ratio [8] was 2 and the selectivity ratio [9] was 2. The selectivity ratio [10] was 2, the MIC [11] was > 64 µM and the MIC [12] was > 64 µM. The MIC [13] was > 64 µM, the MIC [14] was > 64 µM and the MIC [15] was > 64 µM. For the same compound, the MIC [16] was > 64 µM, the hemolysis at up to 128 µM [17] was < 5% and the selectivity ratio [18] was 2. For the same compound, the selectivity ratio [19] was 2, the selectivity ratio [20] was 2 and the MIC [21] was > 64 µM. The MHC [22] was > 128 µM, the MIC [23] was > 64 µM and the MIC [24] was > 64 µM. For the same compound, the selectivity ratio [25] was 2, the MIC [26] was > 64 µM and the viability at 128 µM [27] was > 90%. It also gave a selectivity ratio [28] of 2.
In the case of `CC[C@H](C)[C@H](N)C(=O)N[C@@H](CS)C(=O)N[C@@H](CCCNC(=N)N)C(=O)N[C@@H](CCCCN)C(=O)N1CCC[C@H]1C(=O)N[C@H](C(=O)N[C@H](C(=O)N[C@@H](CS)C(=O)N[C@@H](CCCNC(=N)N)C(=O)N[C@@H](CCCCN)C(=O)N1CCC[C@H]1C(=O)N[C@H](C(=O)N[C@H](C(=O)N[C@@H](CS)C(=O)N[C@@H](CCCNC(=N)N)C(=O)N[C@@H](CCCCN)C(=O)N1CCC[C@H]1C(=O)N[C@H](C(N)=O)[C@@H](C)CC)[C@@H](C)CC)[C@@H](C)CC)[C@@H](C)CC)[C@@H](C)CC` (H-ICRKPIICRKPIICRKPI-NH2), the MIC [1] is reported as 8 µM (≈ 17.2 µg/mL), the selectivity ratio [2] is reported as 2 and the selectivity ratio [3] is reported as 2. The viability at 128 µM [4] was > 90%, the selectivity ratio [5] was 2 and the selectivity ratio [6] was 11.3. The MIC [7] was > 64 µM, the selectivity ratio [8] was 11.3 and the selectivity ratio [9] was 2. For the same compound, the selectivity ratio [10] was 11.3, the MIC [11] was 8 µM (≈ 17.2 µg/mL) and the MIC [12] was 16 µM (≈ 34.4 µg/mL). The MIC [13] was 4 µM (≈ 8.6 µg/mL), the MIC [14] was > 64 µM and the MIC [15] was 64 µM (≈ 138 µg/mL). For the same compound, the MIC [16] was > 64 µM, the hemolysis at up to 128 µM [17] was < 5% and the selectivity ratio [18] was 11.3. The selectivity ratio [19] was 2, the selectivity ratio [20] was 11.3 and the MIC [21] was > 64 µM. For the same compound, the MHC [22] was > 128 µM, the MIC [23] was 8 µM (≈ 17.2 µg/mL) and the MIC [24] was > 64 µM. The selectivity ratio [25] was 2, the MIC [26] was > 64 µM and the viability at 128 µM [27] was > 90%. The selectivity ratio [28] was 11.3.
`CC[C@H](C)[C@H](N)C(=O)N[C@@H](CS)C(=O)N[C@@H](CCCNC(=N)N)C(=O)N[C@@H](CCCCN)C(=O)N1CCC[C@H]1C(=O)N[C@H](C(=O)N[C@H](C(=O)N[C@@H](CS)C(=O)N[C@@H](CCCNC(=N)N)C(=O)N[C@@H](CCCCN)C(=O)N1CCC[C@H]1C(=O)N[C@H](C(=O)N[C@H](C(=O)N[C@@H](CS)C(=O)N[C@@H](CCCNC(=N)N)C(=O)N[C@@H](CCCCN)C(=O)N1CCC[C@H]1C(=O)N[C@H](C(=O)N[C@H](C(=O)N[C@@H](CS)C(=O)N[C@@H](CCCNC(=N)N)C(=O)N[C@@H](CCCCN)C(=O)N1CCC[C@H]1C(=O)N[C@H](C(=O)N[C@H](C(=O)N[C@@H](CS)C(=O)N[C@@H](CCCNC(=N)N)C(=O)N[C@@H](CCCCN)C(=O)N1CCC[C@H]1C(=O)N[C@H](C(N)=O)[C@@H](C)CC)[C@@H](C)CC)[C@@H](C)CC)[C@@H](C)CC)[C@@H](C)CC)[C@@H](C)CC)[C@@H](C)CC)[C@@H](C)CC)[C@@H](C)CC` (H-ICRKPIICRKPIICRKPIICRKPIICRKPI-NH2) gave an MIC [1] of 4 µM (≈ 14.3 µg/mL), a selectivity ratio [2] of 2 and a selectivity ratio [3] of 2. For the same compound, the viability at 128 µM [4] was > 90%, the selectivity ratio [5] was 2 and the selectivity ratio [6] was 28.5. The MIC [7] was > 64 µM, the selectivity ratio [8] was 28.5 and the selectivity ratio [9] was 2. The selectivity ratio [10] was 28.5, the MIC [11] was 4 µM (≈ 14.3 µg/mL) and the MIC [12] was 8 µM (≈ 28.6 µg/mL). For the same compound, the MIC [13] was 2 µM (≈ 7.14 µg/mL), the MIC [14] was > 64 µM and the MIC [15] was 8 µM (≈ 28.6 µg/mL). The MIC [16] was > 64 µM, the hemolysis at up to 128 µM [17] was < 5% and the selectivity ratio [18] was 28.5. The selectivity ratio [19] was 2, the selectivity ratio [20] was 28.5 and the MIC [21] was > 64 µM. The MHC [22] was > 128 µM, the MIC [23] was 4 µM (≈ 14.3 µg/mL) and the MIC [24] was > 64 µM. The selectivity ratio [25] was 2, the MIC [26] was > 64 µM and the viability at 128 µM [27] was > 90%. For the same compound, the selectivity ratio [28] was 28.5.
With `CC[C@H](C)[C@H](N)C(=O)N[C@H](C(=O)N[C@@H](CS)C(=O)N[C@@H](CCCNC(=N)N)C(=O)N[C@@H](CCCCN)C(=O)N1CCC[C@H]1C(=O)N[C@H](C(=O)N[C@H](C(=O)N[C@@H](CS)C(=O)N[C@@H](CCCNC(=N)N)C(=O)N[C@@H](CCCCN)C(=O)N1CCC[C@H]1C(=O)N[C@H](C(=O)N[C@H](C(N)=O)[C@@H](C)CC)[C@@H](C)CC)[C@@H](C)CC)[C@@H](C)CC)[C@@H](C)CC` (H-IICRKPIICRKPII-NH2) the MIC [1] was 16 µM (≈ 26.6 µg/mL), the selectivity ratio [2] was 2 and the selectivity ratio [3] was 2. The viability at 128 µM [4] was > 90%, the selectivity ratio [5] was 2 and the selectivity ratio [6] was 4. For the same compound, the MIC [7] was > 64 µM, the selectivity ratio [8] was 4 and the selectivity ratio [9] was 2. For the same compound, the selectivity ratio [10] was 4, the MIC [11] was 32 µM (≈ 53.3 µg/mL) and the MIC [12] was > 64 µM. For the same compound, the MIC [13] was 16 µM (≈ 26.6 µg/mL), the MIC [14] was > 64 µM and the MIC [15] was > 64 µM. For the same compound, the MIC [16] was > 64 µM, the hemolysis at up to 128 µM [17] was < 5% and the selectivity ratio [18] was 4. For the same compound, the selectivity ratio [19] was 2, the selectivity ratio [20] was 4 and the MIC [21] was > 64 µM. For the same compound, the MHC [22] was > 128 µM, the MIC [23] was 32 µM (≈ 53.3 µg/mL) and the MIC [24] was > 64 µM. For the same compound, the selectivity ratio [25] was 2, the MIC [26] was > 64 µM and the viability at 128 µM [27] was > 90%. It also gave a selectivity ratio [28] of 4.
